The text below walks through data of patent US20240228506A1, “RIPK1 INHIBITORS AND METHODS OF USE” (Merck Sharp & Dohme LLC, priority 2021, published 2024).

pIC50: −log10 of the molar value.

The experiment deals with T1, GST-RIPK1 (recombinant GST-RIPK1 kinase domain (residues 1-327)) (Homo sapiens, UniProt Q13546).
T1 construct: recombinant GST-RIPK1 kinase domain (residues 1-327) enzyme; made in house; host or cells: baculovirus-transfected Sf21 insect cells
T1 sequence (Q13546 1-327): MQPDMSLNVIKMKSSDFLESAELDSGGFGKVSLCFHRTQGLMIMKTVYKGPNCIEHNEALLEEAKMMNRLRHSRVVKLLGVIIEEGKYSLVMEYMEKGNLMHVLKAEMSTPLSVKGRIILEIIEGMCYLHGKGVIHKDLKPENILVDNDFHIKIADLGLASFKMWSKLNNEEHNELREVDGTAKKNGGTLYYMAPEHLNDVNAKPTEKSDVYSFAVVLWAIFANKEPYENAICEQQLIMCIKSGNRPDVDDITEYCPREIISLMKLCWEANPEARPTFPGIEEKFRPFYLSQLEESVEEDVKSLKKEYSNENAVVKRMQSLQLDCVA
As to the kind of experiment: RIPK1-ADP-Glo enzymatic assay. The class given is biochemical. The settings on record: 25 nM GST-RIPK1, 300 μM ATP, 3 μM dephosphorylated-MBP; 30 minutes pre-incubation, 150 minutes reaction; ten-point titration. The procedure, abridged: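 Ten-point 1:3 titrations from 100000 nM, 1% DMSO, were preincubated 30 min with 25 nM GST-RIPK1 (1-327) before starting with 300 μM ATP plus 3 μM dephosphorylated MBP; 150 min reaction. ADP-Glo luminescence measured ATP-to-ADP conversion; EC50 by four-parameter sigmoidal regression.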
A general note: ADP-Glo first removes unused ATP, then detects ADP through luciferase.
As for `N#Cc1cncc2c1O[C@H]1C[C@@H]2N(C(=O)C2(F)CCN(c3cc(C4CC4)ncn3)CC2)C1` [Compound 1-71, (2S,5S)-4-(1-(6-cyclopropylpyrimidin-4-yl)-4-fluoropiperidine-4-carbonyl)-2,3,4,5-tetrahydro-2,5-methanopyrido[3,4-f][1,4]oxazepine-9-carbonitrile], the pIC50 (as a rule, the IC50 on a negative log10 scale, so that one unit is a factor of ten) is 6.63.
On to `N#Cc1cncc2c1O[C@H]1C[C@@H]2N(C(=O)C23CCC(CO2)C3)C1` [Compound 1-108, (2S,5S)-4-(2-oxabicyclo[2.2.1]heptane-1-carbonyl)-2,3,4,5-tetrahydro-2,5-methanopyrido[3,4-f][1,4]oxazepine-9-carbonitrile], for which the pIC50 is 6.57.
With `CCC(C)(C#N)C(=O)N1C[C@@H]2C[C@H]1c1cncc(C#N)c1S2` (single isomer, unassigned) [Compound 4-9, (2S,5S)-4-(2-(R or S)-cyano-2-methylbutanoyl)-2,3,4,5-tetrahydro-2,5-methanopyrido[3,4-f][1,4]thiazepine-9-carbonitrile], the pIC50 is 7.21.
On to `N#Cc1cncc2c1O[C@H]1C[C@@H]2N(C(=O)C2(F)CCN(c3ncnc4scnc34)CC2)C1` [Compound 1-57, (2S,5S)-4-(4-fluoro-1-(thiazolo[5,4-d]pyrimidin-7-yl)piperidine-4-carbonyl)-2,3,4,5-tetrahydro-2,5-methanopyrido[3,4-f][1,4]oxazepine-9-carbonitrile], for which the pIC50 is 7.46.
With `CC(F)(F)C1(C(=O)N2C[C@@H]3C[C@H]2c2cncc(C#N)c2O3)CCC1` [Compound 1-22, (2S,5S)-4-[1-(1,1-difluoroethyl)cyclobutane-1-carbonyl]-2,3,4,5-tetrahydro-2,5-methanopyrido[3,4-f][1,4]oxazepine-9-carbonitrile], the pIC50 is 7.26.
As to `O=C(N1C[C@@H]2C[C@H]1c1cncc(Cl)c1O2)C12CCC(F)(CC1)C2` [Compound 2-3, ((2S,5S)-9-Chloro-2,3-dihydro-2,5-methanopyrido[3,4-f][1,4]oxazepin-4(5H)-yl)(4-fluorobicyclo[2.2.1]heptan-1-yl)methanone], the pIC50 was 8.10.
Next, `CC(C)(C(=O)N1C[C@@H]2C[C@H]1c1cncc(Cl)c1O2)C(F)F` [Compound 2-2, 1-((2S,5S)-9-Chloro-2,3-dihydro-2,5-methanopyrido[3,4-f][1,4]oxazepin-4(5H)-yl)-3,3-difluoro-2,2-dimethylpropan-1-one]: 6.86; `CC(C)(C(=O)N1C[C@@H]2C[C@H]1c1cncc(C#Cc3cnc4ccnn4c3)c1O2)C(F)F` [Compound 2-75, 3,3-difluoro-2,2-dimethyl-1-((2S,5S)-9-(pyrazolo[1,5-a]pyrimidin-6-ylethynyl)-2,3-dihydro-2,5-methanopyrido[3,4-f][1,4]oxazepin-4(5H)-yl)propan-1-one]: 7.57.
As for `O=C(N1C[C@@H]2C[C@H]1c1cncc(F)c1O2)C12CCC(C1)C2` [Compound 2-30, bicyclo[2.1.1]hexan-1-yl((2S,5S)-9-fluoro-2,3-dihydro-2,5-methanopyrido[3,4-f][1,4]oxazepin-4(5H)-yl)methanone], the pIC50 was 6.81.
Next, `N#Cc1cncc2c1O[C@H]1C[C@@H]2N(C(=O)C23CCC(F)(CC2)CC3)C1` [Compound 1-63, (2S,5S)-4-(4-fluorobicyclo[2.2.2]octane-1-carbonyl)-2,3,4,5-tetrahydro-2,5-methanopyrido[3,4-f][1,4]oxazepine-9-carbonitrile]: 7.24; `N#Cc1cncc2c1O[C@H]1C[C@@H]2N(C(=O)C23CCCC2C3)C1` (single isomer, unassigned) [Compound 1-32, (2S,5S)-4-[(1R,5R or 1S,5S)-bicyclo[3.1.0]hexane-1-carbonyl]-2,3,4,5-tetrahydro-2,5-methanopyrido[3,4-f][1,4]oxazepine-9-carbonitrile]: 6.54; `CCC(C)(C#N)C(=O)N1C[C@@H]2C[C@H]1c1cncc(C#N)c1O2` (single isomer, unassigned) [Compound 1-112, (2S,5S)-4-(2-(R or S)-cyano-2-methylbutanoyl)-2,3,4,5-tetrahydro-2,5-methanopyrido[3,4-f][1,4]oxazepine-9-carbonitrile]: 6.60.
Next, `CC(C)(C(=O)N1C[C@@H]2C[C@H]1c1cncc(C#CCF)c1O2)C(F)F` [Compound 2-113, 3,3-difluoro-1-((2S,5S)-9-(3-fluoroprop-1-yn-1-yl)-2,3-dihydro-2,5-methanopyrido[3,4-f][1,4]oxazepin-4(5H)-yl)-2,2-dimethylpropan-1-one]: 6.94.
Next, `N#Cc1cccc(C#Cc2cncc3c2O[C@H]2C[C@@H]3N(C(=O)C34CCC(F)(CC3)C4)C2)c1` [Compound 2-100, 3-(((2S,5S)-4-(4-fluorobicyclo[2.2.1]heptane-1-carbonyl)-2,3,4,5-tetrahydro-2,5-methanopyrido[3,4-f][1,4]oxazepin-9-yl)ethynyl)benzonitrile]: 7.92; `CC(C)(C(=O)N1C[C@@H]2C[C@H]1c1cncc(Cl)c1O2)C1CC1` [Compound 2-6]: 7.62.
As to `CC(F)(F)C1(C(=O)N2C[C@@H]3C[C@H]2c2cncc(Cl)c2O3)CCC1` [Compound 2-11, ((2S,5S)-9-chloro-2,3-dihydro-2,5-methanopyrido[3,4-f][1,4]oxazepin-4(5H)-yl)(1-(1,1-difluoroethyl)cyclobutyl) methanone], the pIC50 is 7.24.
In the case of `CCC(C)(OC)C(=O)N1C[C@@H]2C[C@H]1c1cncc(C#N)c1O2` (single isomer, unassigned) [Compound 1-17, (2S,5S)-4-[2(S or R)-methoxy-2-methylbutanoyl]-2,3,4,5-tetrahydro-2,5-methanopyrido[3,4-f][1,4]oxazepine-9-carbonitrile], the pIC50 is 7.62.
With `COC12CCC(C(=O)N3C[C@@H]4C[C@H]3c3cncc(C#N)c3O4)(CC1)C2` [Compound 1-97, (2S,5S)-4-(4-methoxybicyclo[2.2.1]heptane-1-carbonyl)-2,3,4,5-tetrahydro-2,5-methanopyrido[3,4-f][1,4]oxazepine-9-carbonitrile] the figure was 7.04; with `CC(C)(C(=O)N1C[C@@H]2C[C@H]1c1cncc(C#Cc3cnc(C(F)(F)F)nc3)c1O2)C(F)F` [Compound 2-77, 3,3-difluoro-2,2-dimethyl-1-((2S,5S)-9-((2-(trifluoromethyl)pyrimidin-5-yl)ethynyl)-2,3-dihydro-2,5-methanopyrido[3,4-f][1,4]oxazepin-4(5H)-yl)propan-1-one], 7.31.
With `N#Cc1cncc2c1O[C@H]1C[C@@H]2N(C(=O)C2(C(F)(F)F)CC2)C1` [Compound 1-75, (2S,5S)-4-(1-(trifluoromethyl)cyclopropane-1-carbonyl)-2,3,4,5-tetrahydro-2,5-methanopyrido[3,4-f][1,4]oxazepine-9-carbonitrile] the figure was 6.26; with `CC(C)(C(=O)N1C[C@@H]2C[C@H]1c1cncc(F)c1O2)C(F)F` [Compound 2-1, 3,3-Difluoro-1-((2S,5S)-9-fluoro-2,3-dihydro-2,5-methanopyrido[3,4-f][1,4]oxazepin-4(5H)-yl)-2,2-dimethylpropan-1-one], 6.74; with `C#CC(C)(C)C(=O)N1C[C@@H]2C[C@H]1c1cncc(C#N)c1O2` [Compound 1-96, (2S,5S)-4-(2,2-dimethylbut-3-ynoyl)-2,3,4,5-tetrahydro-2,5-methanopyrido[3,4-f][1,4]oxazepine-9-carbonitrile], 6.83.
In the case of `O=C(N1C[C@@H]2C[C@H]1c1cncc(C#Cc3ccncn3)c1O2)C12CCC(C(F)(F)F)(CC1)C2` [Compound 2-67, ((2S,5S)-9-(pyrimidin-4-ylethynyl)-2,3-dihydro-2,5-methanopyrido[3,4-f][1,4]oxazepin-4(5H)-yl)(4-(trifluoromethyl)bicyclo [2.2.1]heptan-1-yl)methanone], the pIC50 was 7.49.
With `O=C(N1C[C@@H]2C[C@H]1c1cncc(C#Cc3cnc4ccoc4c3)c1O2)C12CCC(C(F)(F)F)(CC1)C2` [Compound 2-53, ((2S,5S)-9-(furo[3,2-b]pyridin-6-ylethynyl)-2,3-dihydro-2,5-methanopyrido[3,4-f][1,4]oxazepin-4(5H)-yl)(4-(trifluoromethyl)bicyclo [2.2.1]heptan-1-yl)methanone] the figure was 7.77.
On to `O=C(N1C[C@@H]2C[C@H]1c1cncc(C#Cc3cncc(F)c3)c1O2)C12CCC(C(F)(F)F)(CC1)C2` [Compound 2-96, ((2S,5S)-9-((5-Fluoropyridin-3-yl)ethynyl)-2,3-dihydro-2,5-methanopyrido[3,4-f][1,4]oxazepin-4(5H)-yl)(4-(trifluoromethyl)bicyclo[2.2.1]heptan-1-yl)methanone], for which the pIC50 was 7.32.
Consider `CC1(CC#Cc2cncc3c2O[C@H]2C[C@@H]3N(C(=O)C34CCC(F)(CC3)C4)C2)COC1` [Compound 2-116, (4-fluorobicyclo[2.2.1]heptan-1-yl)((2S,5S)-9-(3-(3-methyloxetan-3-yl)prop-1-yn-1-yl)-2,3-dihydro-2,5-methanopyrido[3,4-f][1,4]oxazepin-4(5H)-yl)methanone], for which the pIC50 was 6.42.
With `N#Cc1cncc2c1S[C@H]1C[C@@H]2N(C(=O)C23CCC(F)(CC2)C3)C1` [Compound 4-3, (2S,5S)-4-(4-fluorobicyclo[2.2.1]heptane-1-carbonyl)-2,3,4,5-tetrahydro-2,5-methanopyrido[3,4-f][1,4]thiazepine-9-carbonitrile] the figure was 7.92.
